The subject of the experiment is leaf rust (Puccinia triticina, CCDS-96-14-1 isolate) urediniospores. The experiment is classed as cell-based.

Where no end group is shown, it is not given here.

“KEICCKELTKPVKCSSDPLCQKLCMEKEKYEDGHCFTILSKCLCMKRCNAKTLATELLA (disulfide (positions not given here)) [CaThi]”: the “germination rate of urediniospores” value was 22.73 % ± 7.39.
